From paper PMC4253011, “Positive allosteric modulation of the adenosine A2a receptor attenuates inflammation” (Journal of Inflammation (London, England), 2014)
One block for each compound: values may come before it.

Columns and labels:
[1] = test system: human monocytes; assay: PMA-stimulated TNF-α production by human monocytes; assay type: cell-based
[2] = biological target: rat A2aR (rA2aR) (Rattus norvegicus, UniProt P30543); assay: cAMP assay in PC-12 cells (endogenous rat A2aR); conditions: A2bR antagonist pre-incubated 15 min
Chain of rat A2aR (rA2aR) (P30543 whole entry): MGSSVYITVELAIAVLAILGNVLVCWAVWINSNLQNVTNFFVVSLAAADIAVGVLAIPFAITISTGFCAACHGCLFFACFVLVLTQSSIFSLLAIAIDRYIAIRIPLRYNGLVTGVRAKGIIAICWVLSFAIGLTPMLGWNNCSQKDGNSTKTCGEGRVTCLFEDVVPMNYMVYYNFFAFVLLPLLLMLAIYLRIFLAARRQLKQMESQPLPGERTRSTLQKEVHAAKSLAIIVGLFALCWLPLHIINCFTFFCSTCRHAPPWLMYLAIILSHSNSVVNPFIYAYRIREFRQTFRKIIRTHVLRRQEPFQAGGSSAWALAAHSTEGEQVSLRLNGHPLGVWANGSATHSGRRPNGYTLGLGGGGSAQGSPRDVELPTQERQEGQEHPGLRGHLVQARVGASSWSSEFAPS

[3] = test system: murine model of sepsis; parameters: method as in PMID 18937852; conditions: within 4 h of LPS injection ref 26; cited from earlier work
[4] = rapidly degraded in vivo by adenosine deaminase; no reference given; cited from earlier work

SMILES: Nc1nc(NCCc2ccc(O)cc2)nc2nc(-c3ccco3)nn12 [ZM 241385, 4-(2-[7-Amino-2-(2-furyl)[1,2,4]triazolo[2,3-a][1,3,5]triazin-5-ylamino]ethyl)phenol]
- effect on AEA061-mediated inhibition of PMA-stimulated TNF-α production ([1]; human monocytes, 15 min pretreatment, AEA061 1 μM, PMA 5 ng/ml): blunted
- effect on NECA-mediated inhibition of TNF-α production ([1]; human monocytes, 15 min pretreatment, NECA 1 μM, PMA 5 ng/ml): reversed the NECA-mediated inhibition in a dose-dependent manner
- PMA-stimulated TNF-α responsiveness in NECA- and AEA061-treated cells ([1]; human monocytes, ZM 241385 at 1 μM): restored

- effect on adenosine- or adenosine plus AEA061-induced cAMP production [2]: failed to inhibit
SMILES: CCCn1c(=O)c2[nH]c(-c3ccc(OCC(=O)Nc4ccc(C#N)cc4)cc3)nc2n(CCC)c1=O [MRS 1754, N-(4-Cyanophenyl)-2-[4-(2,3,6,7-tetrahydro-2,6-dioxo-1,3-dipropyl-1H-purin-8-yl)phenoxy]-acetamide]

SMILES: COC(=O)N1CCC(CC#Cc2nc(N)c3ncn([C@@H]4O[C@H](C(=O)NC5CC5)[C@@H](O)[C@H]4O)c3n2)CC1 [ATL313]
- circulating plasma levels of TNF-α, MIP-1α, MCP-1 [3]: decreases
- plasma level of IL-10 [3]: increases

SMILES: Nc1ncnc2c1ncn2[C@@H]1O[C@H](CO)[C@@H](O)[C@H]1O [adenosine]
- half-life in vivo [4]: less than 10 seconds

SMILES: CCNC(=O)[C@H]1O[C@@H](n2cnc3c(N)ncnc32)[C@H](O)[C@@H]1O [NECA, 5′-N-Ethylcarboxamidoadenosine]
- effect on PMA-stimulated TNF-α production ([1]; human monocytes/macrophages, NECA 1 μM, PMA 5 ng/ml, 12 h): inhibited
